According to patent US20250134855A1, “CO[…] AND METHODS OF USING SAME” (LYKOS THERAPEUTICS, INC., priority 2022, published 2025):
Where two headings read alike, the source gives them in different places.

Test: Study MPKF: plasma pharmacokinetics of MDMA and MDA, single 120 mg MDMA·HCl, fasted/fed
Assay type: in vivo, human
Conditions: for Tmax: median; for concentration at 0.5 h: .5 h
Excerpt: The MPKF was a Phase 1, open-label, randomized sequence, multi-dose, 2-period crossover food effect study in 16 healthy individuals. The MPKF study evaluated plasma concentrations of both MDMA and the active metabolite 3,4-methylenedioxyamphetamine (MDA). Summary PK Parameters of the preliminary data was based on interim analysis are presented in Table 12 Table 12 Table 12, and Table 13 Table 13 Table 13 for MDMA and MDA, respectively.
Participants were randomized to receive 1 of 2 conditions before the other: • Fasted Treatment: at least 10 hours of fasting followed by administration of MDMA HCl with 240 mL water. • Fed Treatment: at least 10 hours of fasting followed by a high-fat (approximately 50% of total caloric content of the meal) and high-calorie (approximately 800 to 1000 calories) meal was consumed within 30 minutes prior to IMP administration.
Participants remained at the clinical research unit (CRU) for each Dosing Session from the time of check-in on the night before dosing until discharge 48 hours after dosing for collection of serial blood samples for PK analysis and safety monitoring. IMP was administered on Day 1 following the treatment sequence to which the participant was randomized. An additional outpatient visit occurred 72 hours after dosing to collect a final PK sample, commensurate with the expected PK profiles of MDMA and MDA. Safety assessments were also performed at this visit.
The washout period between Dosing Sessions was at least 14 days. If a participant experienced emesis within 4 hours of administration, they were to be withdrawn from the study and replaced with a new participant. An End of Study Visit was performed 2 to 10 days after the completion of the final Dosing Session 72-hour follow-up. An informal interim analysis was planned to be conducted after at least 5 participants completed at least 1 Dosing Session to examine PK variability.
The API was a white crystalline powder of pharmaceutical quality, made according to current Good Manufacturing Practices (cGMP) for human use.
Participants: Sixteen healthy individuals were recruited for the study.
Intervention: The study was conducted as a Phase 1, open-label, randomized sequence, multi-dose, 2-period crossover food effect study. Each participant received multiple doses of MDMA, and plasma concentrations of both MDMA and the active metabolite MDA were measured.
Sample Collection: Blood samples were collected at various time points up to 72 hours after dosing. The samples were analyzed using validated liquid chromatography-tandem mass spectrometry (LC-MS/MS) methods.
Data Analysis: The summary PK parameters were presented in Table 12 for MDMA and Table 13 for MDA. The data were analyzed using descriptive statistics, and the mean and standard deviation were calculated. The results were compared between the two periods and analyzed for food effects. Statistical analyses were performed using appropriate methods, such as analysis of variance (ANOVA) and paired t-tests. A p-value of less than 0.05 was considered statistically significant.

[1] = Fasted N = 15, 120 mg MDMA·HCl, preliminary
[2] = Fasted N = 15, 120 mg MDMA·HCl, preliminary, arithmetic mean
[3] = Fed N = 11, 120 mg MDMA·HCl, preliminary
[4] = Fed N = 11, 120 mg MDMA·HCl, preliminary, arithmetic mean
[5] = human, plasma, oral, 120 mg, fasted treatment group, read-out: PK plasma concentration, Geom. Mean
[6] = human, plasma, oral, 120 mg, fasted treatment group, read-out: PK plasma concentration, Mean
[7] = human, plasma, oral, 120 mg, fasted treatment group, read-out: PK plasma concentration, Median
[8] = human, plasma, oral, 120 mg, fed treatment group, read-out: PK plasma concentration, Geom. Mean
[9] = human, plasma, oral, 120 mg, fed treatment group, read-out: PK plasma concentration, Mean
[10] = human, plasma, oral, 120 mg, fed treatment group, read-out: PK plasma concentration, Median

CNC(C)Cc1ccc2c(c1)OCO2 (centres unmarked) [MDMA, 3,4-methylenedioxymethamphetamine]
higher plasma PK values in intermediate relative to normal CYP2D6 metabolizers (8 intermediate, 8 normal metabolizers): approximately 26%
Cmax, Geometric LSM (Fasted): 238 ng/mL
Tlag [1]: 0.6 h
CL/F [2]: 29.5 L/h
Cmax [2]: 238 ng/mL
Tmax [1]: 2 h
AUC0-inf, Geometric LSM (Fed): 3357 ng·h/mL
Cmax, Geometric LSM (Fed): 229 ng/mL
Tlag [3]: 0.7 h
AUC(0-inf) [4]: 3318 ng·h/mL
CL/F [4]: 30.1 L/h
Cmax [4]: 227 ng/mL
Tmax [3]: 4 h
Cmax (both sexes, human, plasma, oral, single 120 mg dose of MDMA·HCl, fasting healthy males and females, read-out: Cmax): 261 ng/mL
Cmax (both sexes, human, plasma, po, single 120 mg dose of MDMA·HCl, fasting healthy males and females, read-out: Cmax): 261 ng/mL
AUC0-72, Geometric Mean Ratio (fed vs fasted): 0.99
AUC0-inf, Geometric Mean Ratio (fed vs fasted): 0.99
AUC0-t, Geometric Mean Ratio (fed vs fasted): 1.00
Cmax, Geometric Mean Ratio (fed vs fasted): 0.97
dose proportionality of pharmacokinetics (higher than dose proportional increases, auto-inhibition of CYP2D6): non-linear
AUC(0-t) (human, plasma, oral, 120 mg, Fasted, read-out: AUC0-72, Geometric LSM): 3360 ng·h/mL
AUC(0-inf) (human, plasma, oral, 120 mg, Fasted, read-out: AUC0-inf, Geometric LSM): 3380 ng·h/mL
AUC(0-t) (human, plasma, oral, 120 mg, Fasted, read-out: AUC0-t, Geometric LSM): 3120 ng·h/mL
AUC(0-t) (human, plasma, oral, 120 mg, Fed, read-out: AUC0-72, Geometric LSM): 3340 ng·h/mL
AUC(0-t) (human, plasma, oral, 120 mg, Fed, read-out: AUC0-t, Geometric LSM): 3110 ng·h/mL
half-life (human, plasma, oral, 120 mg, both fed and fasted groups, read-out: mean elimination half-life): 8 to 9 h
concentration at 1 h [5]: 111 ng/mL
concentration at 1 h [6]: 111 ng/mL
concentration at 1 h [7]: 124 ng/mL
concentration at 2 h [5]: 186 ng/mL
concentration at 2 h [6]: 210 ng/mL
concentration at 2 h [7]: 211 ng/mL
concentration at 4 h [5]: 219 ng/mL
concentration at 4 h [6]: 225 ng/mL
concentration at 4 h [7]: 218 ng/mL
concentration at 6 h [5]: 188 ng/mL
concentration at 6 h [6]: 193 ng/mL
concentration at 6 h [7]: 199 ng/mL
concentration at 8 h [5]: 160 ng/mL
concentration at 8 h [6]: 166 ng/mL
concentration at 8 h [7]: 165 ng/mL
concentration at 12 h [5]: 111 ng/mL
concentration at 12 h [6]: 118 ng/mL
concentration at 12 h [7]: 120 ng/mL
concentration at 24 h [5]: 44.2 ng/mL
concentration at 24 h [6]: 50.1 ng/mL
concentration at 24 h [7]: 53.6 ng/mL
concentration at 48 h [5]: 12.3 ng/mL
concentration at 48 h [6]: 7.61 ng/mL
concentration at 48 h [7]: 6.5 ng/mL
concentration at 72 h [5]: 6.25 ng/mL
concentration at 72 h [6]: 0.417 ng/mL
concentration at 72 h [7]: 0 ng/mL
concentration at 0.5 h [5]: 39.3 ng/mL
concentration at 0.5 h [6]: 23.1 ng/mL
concentration at 0.5 h [7]: 0 ng/mL
concentration at 1 h [8]: 46.2 ng/mL
concentration at 1 h [9]: 59.8 ng/mL
concentration at 1 h [10]: 47.4 ng/mL
concentration at 2 h [8]: 118 ng/mL
concentration at 2 h [9]: 129 ng/mL
concentration at 2 h [10]: 132 ng/mL
concentration at 4 h [8]: 222 ng/mL
concentration at 4 h [9]: 228 ng/mL
concentration at 4 h [10]: 224 ng/mL
concentration at 6 h [8]: 208 ng/mL
concentration at 6 h [9]: 215 ng/mL
concentration at 6 h [10]: 208 ng/mL
concentration at 8 h [8]: 173 ng/mL
concentration at 8 h [9]: 181 ng/mL
concentration at 8 h [10]: 180 ng/mL
concentration at 12 h [8]: 120 ng/mL
concentration at 12 h [9]: 129 ng/mL
concentration at 12 h [10]: 132 ng/mL
concentration at 24 h [8]: 42 ng/mL
concentration at 24 h [9]: 50.5 ng/mL
concentration at 24 h [10]: 41.4 ng/mL
concentration at 48 h [8]: 14.2 ng/mL
concentration at 48 h [9]: 7.41 ng/mL
concentration at 48 h [10]: 0 ng/mL
concentration at 72 h [8]: 11.3 ng/mL
concentration at 72 h [9]: 0.81 ng/mL
concentration at 72 h [10]: 0 ng/mL
concentration at 0.5 h [8]: 18.5 ng/mL
concentration at 0.5 h [9]: 10.2 ng/mL
concentration at 0.5 h [10]: 4.12 ng/mL
Vd/F (human, plasma, po, 120 mg, Fasted N = 15, 120 mg MDMA·HCl, preliminary, arithmetic mean): 372 L
AUC(0-t) (human, plasma, po, 120 mg, Fasted N = 15, 120 mg MDMA·HCl, preliminary, arithmetic mean, read-out: AUC0-72): 3370 ng·h/mL
AUC(0-inf) (human, plasma, po, 120 mg, Fasted N = 15, 120 mg MDMA·HCl, preliminary, arithmetic mean, read-out: AUC0-inf): 3390 ng·h/mL
AUC(0-t) (human, plasma, po, 120 mg, Fasted N = 15, 120 mg MDMA·HCl, preliminary, arithmetic mean, read-out: AUC0-t): 3120 ng·h/mL
half-life (human, plasma, po, 120 mg, Fasted N = 15, 120 mg MDMA·HCl, preliminary, arithmetic mean, read-out: t1/2 (converted)): 8.7 h
Vd/F (human, plasma, po, 120 mg, Fed N = 11, 120 mg MDMA·HCl, preliminary, arithmetic mean): 349 L
AUC(0-t) (human, plasma, po, 120 mg, Fed N = 11, 120 mg MDMA·HCl, preliminary, arithmetic mean, read-out: AUC0-72): 3300 ng·h/mL
AUC(0-t) (human, plasma, po, 120 mg, Fed N = 11, 120 mg MDMA·HCl, preliminary, arithmetic mean, read-out: AUC0-t): 3060 ng·h/mL
half-life (human, plasma, po, 120 mg, Fed N = 11, 120 mg MDMA·HCl, preliminary, arithmetic mean, read-out: t1/2 (converted)): 8 h
AUC(0-inf) (human, plasma, po, 120 mg, single 120 mg dose of MDMA·HCl, fasting, read-out: AUC0-inf): 3890 ng·h/mL
half-life (human, plasma, po, 120 mg, single 120 mg dose of MDMA·HCl, fasting, read-out: t1/2 (converted)): 9.1 h
Tmax (human, plasma, po, single 120 mg dose of MDMA·HCl, fasting, read-out: Tmax): ≤ 2 h
plasma concentrations and PK parameters (Cmax, AUC0-t, AUC0-inf, AUC0-72, AUC% ext), fed vs fasted (single 120 mg MDMA HCl): not significantly different
Tmax (single 120 mg dose of MDMA·HCl, fasting): 2.00 h
unbound maximum concentration (Cmax) (single 120 mg dose, estimated from Cmax 261 ng/ml and 51% protein binding): 660 nM
